Earlier results, collected in patent US20150291756A1, “PROCESS FOR THE PRODUCTION OF RIGID FOAMED OBJECTS MADE OF POLYMER MATERIALS” (priority 2013, published 2015).
Like-named read-outs stand apart in the source and are kept apart here.

What was measured:
[1] = toxicological studies
[2] = test system: rats; conditions: 4-hour exposure, decomposition residues of the diazocompound (TSMN for AIBN)
[3] = substance as such
[4] = recommended by OSHA, ACGIH, NIOSH
[5] = test system: human; conditions: human inhalative exposure; BASF Risk Assessment study

Structure (SMILES)	carcinogenic and genotoxic activity [1]	Approximate Lethal Concentration Values by inhalation of its residues (ALC) [2] [mg/L]	EU Hazard Classification [3]	occupational permissible exposure limit [4] [ppm]	occupational permissible exposure limit ([4]; equivalent of the ppm value) [mg/m^3]	tentative Derived No Effect Level (DNEL) [5] [μg/m^3]
NC(=O)N=NC(N)=O [ADC, Azodicarbonamide]	carcinogenic and genotoxic activity	–	–	–	–	–
CCC(C)(C#N)N=NC(C)(C#N)CC (stereo not shown) [AMBN, 2,2′-Azobis(2-methylbutanenitrile)]	–	8.7	Harmful	–	–	–
CC(C)(C#N)C(C)(C)C#N [TMSN, 2,2,3,3-tetramethylbutanedinitrile]	–	0.1	–	0.5	3	25
